According to ChEMBL document CHEMBL1201862, “PubChem BioAssay data set” (2004):
The source made the active and inactive calls. For most assays here, no stated cut-off is given here; in the data, actives have a measured EC50 and inactives only a lower limit.

Columns and labels:
Assay type in all cases: functional
[1] = molecular target: T1, Sentrin-specific protease 8 (Homo sapiens, UniProt Q96LD8); assay: inhibition of human SENP8 cleavage activity – biochemical, luminescence, SAR follow-up (AID 504501)
T1 sequence (Q96LD8 whole entry): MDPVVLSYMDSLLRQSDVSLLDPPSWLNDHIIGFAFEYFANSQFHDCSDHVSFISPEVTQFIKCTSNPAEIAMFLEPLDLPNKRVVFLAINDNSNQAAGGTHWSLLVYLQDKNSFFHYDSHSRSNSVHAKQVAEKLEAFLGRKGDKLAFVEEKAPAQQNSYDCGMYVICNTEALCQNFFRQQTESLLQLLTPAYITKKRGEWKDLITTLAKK

[2] = molecular target: Intestinal-type alkaline phosphatase (Homo sapiens, UniProt P09923); assay: activation of human intestinal alkaline phosphatase – biochemical, dose response (AID 488873)
Intestinal-type alkaline phosphatase, sequence (P09923 whole entry): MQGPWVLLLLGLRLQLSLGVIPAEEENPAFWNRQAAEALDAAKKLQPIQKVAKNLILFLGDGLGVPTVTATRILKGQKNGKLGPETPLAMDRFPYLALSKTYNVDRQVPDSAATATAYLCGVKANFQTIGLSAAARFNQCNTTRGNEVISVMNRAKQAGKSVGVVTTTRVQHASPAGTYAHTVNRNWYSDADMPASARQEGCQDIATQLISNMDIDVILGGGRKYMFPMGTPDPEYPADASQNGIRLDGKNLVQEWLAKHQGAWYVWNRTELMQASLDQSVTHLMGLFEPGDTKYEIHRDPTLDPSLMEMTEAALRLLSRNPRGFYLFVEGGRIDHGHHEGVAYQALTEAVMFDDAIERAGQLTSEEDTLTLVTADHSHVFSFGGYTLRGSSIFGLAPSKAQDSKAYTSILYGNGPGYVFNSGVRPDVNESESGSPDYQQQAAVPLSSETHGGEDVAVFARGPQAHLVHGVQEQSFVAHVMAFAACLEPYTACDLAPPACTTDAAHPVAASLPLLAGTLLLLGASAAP

BJ [3] = assay: BJ-TERT fibroblast viability loss – cell-based, RAS-independent, luminescence, dose response (AID 1933); details: Homo sapiens
Protein RecA = molecular target: T2, Protein RecA (Mycobacterium tuberculosis, UniProt P9WHJ3); assay: Fluorescence Cell-Free Homogeneous Dose Retest to Identify Inhibitors of RecA-Intein Splicing Activity. [Related pubchem assays (depositor defined):AID2097, AID2223, AID489010, AID492950]
T2 sequence (P9WHJ3 whole entry): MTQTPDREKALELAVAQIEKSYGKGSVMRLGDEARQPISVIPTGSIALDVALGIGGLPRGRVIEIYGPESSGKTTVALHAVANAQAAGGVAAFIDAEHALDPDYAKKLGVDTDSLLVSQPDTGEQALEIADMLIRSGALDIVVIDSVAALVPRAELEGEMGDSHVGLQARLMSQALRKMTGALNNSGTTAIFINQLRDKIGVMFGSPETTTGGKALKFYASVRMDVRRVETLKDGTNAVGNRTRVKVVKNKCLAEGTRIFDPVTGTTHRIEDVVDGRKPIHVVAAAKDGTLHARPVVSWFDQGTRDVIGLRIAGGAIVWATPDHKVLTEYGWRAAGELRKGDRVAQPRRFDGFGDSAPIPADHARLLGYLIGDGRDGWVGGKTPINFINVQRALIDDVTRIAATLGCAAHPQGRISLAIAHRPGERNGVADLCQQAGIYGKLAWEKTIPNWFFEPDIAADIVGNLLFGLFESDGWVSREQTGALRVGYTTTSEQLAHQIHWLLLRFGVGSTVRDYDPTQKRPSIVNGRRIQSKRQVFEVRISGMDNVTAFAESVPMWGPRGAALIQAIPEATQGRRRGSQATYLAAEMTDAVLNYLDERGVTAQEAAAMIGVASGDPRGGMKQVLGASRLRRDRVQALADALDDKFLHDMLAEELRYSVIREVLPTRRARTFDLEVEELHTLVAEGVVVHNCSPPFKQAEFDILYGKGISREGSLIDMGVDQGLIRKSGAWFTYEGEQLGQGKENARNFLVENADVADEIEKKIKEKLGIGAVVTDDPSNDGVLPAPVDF

[4] = viability loss in HeLa cells – cytotoxicity control for MgcRacGAP inhibitor project, dose response (AID 624300)
BJ [5] = assay: growth inhibition of engineered Ras-driven BJ cells – cell-based, alamar blue fluorescence, cherrypicked samples, dose response (AID 2631); details: Homo sapiens;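 further: confirmatory dose-response assay in RAS-dependent BJ fibroblasts engineered with TERT, LT and ST, with cytotoxicity read by fluorescence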

Compound	IC50 [1]	EC50 [2]	EC50 (BJ [3])	EC50 (Protein RecA)	CC50 [4]	EC50 (BJ [5])
Oc1ccc(/C=N/Nc2cc(N3CCCC3)nc(N3CCCC3)n2)cc1O	> 99 µM (inactive)	> 100 µM (inactive)				
Cc1cc2nc3ccc(N(C)C)cc3[s+]c2cc1N [TOLONIUM CHLORIDE]			5.74 µM (active)	28 µM (active)	25 µM (active)	0.491 µM (inconclusive)
